Assay results from patent publication US20040106545A1, “Compounds and methods for modulating cell adhesion” (priority 1996, published 2004).
Entries after “also recorded” stand apart in the source; their conditions may differ.

Experiments:
[1] = tested on: 3T3 cells not expressing N-cadherin, N-CAM, or L1 (control cells); test: Neurite outgrowth on control 3T3 monolayers (Example 2); format: cell-based, mouse; settings: 500 μg/ml
Protocol: Neurons were cultured on monolayers of 3T3 cells transfected with cDNA encoding N-cadherin essentially as described by Doherty and Walsh, Curr. Op. Neurobiol. 4:49-55, 1994; Williams et al., Neuron 13:583-594, 1994; Hall et al., Cell Adhesion and Commun. 3:441-450, 1996; Doherty and Walsh, Mol. Cell. Neurosci. 8:99-111, 1994; Safell et al., Neuron 18:231-242, 1997. Briefly, monolayers of control 3T3 fibroblasts and 3T3 fibroblasts that express N-cadherin were established by overnight culture of 80,000 cells in individual wells of an 8-chamber well tissue culture slide. 3000 cerebellar neurons isolated from post-natal day 3 mouse brains were cultured for 18 hours on the various monolayers in control media (SATO/2%FCS), or media supplemented with various concentrations of the cyclic peptide N—Ac-CHAVC-NH2 (SEQ ID NO:10) or a control peptide without the HAV sequence (N—Ac-CHGVC-NH2; SEQ ID NO:11). The cultures were then fixed and stained for GAP43, which specifically binds to the neurons and their neurites. The length of the longest neurite on each GAP43 positive neuron was then measured by computer assisted morphometry.

OVCAR-3 = test: Disruption of OVCAR-3 ovarian cancer cell adhesion; format: cell-based, human; settings: 1, 0.1, or 0.01 mg/ml, up to 48 hours
Protocol: The human ovarian cancer cell line OVCAR-3, which expresses E-cadherin, was used in these experiments. Cells were cultured in RPMI supplemented with insulin and containing 20% FCS. Cells were grown in T-250 culture flasks and maintained by periodic subculturing. Cells were harvested from flasks and seeded in individual wells of 96-well culture dishes (surface area of each well was 0.32 cm^2) at a density of 50,000 cells per well in 0.1 ml media containing the cyclic peptides (at concentrations of 1, 0.1, or 0.01 mg/ml). Media control wells were also established. Cultures were evaluated periodically by microscopic examination under both bright field and phase contrast conditions, and were maintained for 48 hours.

control 3T3 cells = test: Neurite outgrowth of rat cerebellar neurons on control 3T3 monolayers (Example 15); format: cell-based; settings: increasing concentrations (FIG. 23)
Protocol: Cell culture and neurite outgrowth assays. Co-cultures of cerebellar neurons on monolayers of control 3T3 cells and monolayers of transfected 3T3 cells that express physiological levels of chick N-cadherin or human L1 were established as previously described (Williams et al., Neuron 13:583-594, 1994). In brief, 80,000 3T3 cells (control and transfected) were plated into individual chambers of an eight-chamber tissue culture slide coated with polylysine and fibronectin and cultured in DMEM/10% FCS. After 24 hours, when confluent monolayers had formed, the medium was removed and 3000 cerebellar neurons isolated from post-natal day 2-3 rats were plated into each well in SATO media (Doherty et al., Nature 343:464-466, 1990) supplemented with 2% FCS. All of the test peptides were added immediately before the neurons as a 2× stock prepared in SATO/2% FCS. The co-cultures were maintained for 16-18 hours, at which time they were fixed and immunostained for GAP-43 which is present only in the neurons and delineates the neuritic processes. The mean length of the longest neurite per cell was measured for 150-200 neurons sampled in replicate cultures as previously described (Williams et al., Neuron 13:583-594, 1994). […] Dose-response curves were evaluated and the EC50 values determined.

SKOV3 tumors = test: Human ovarian (SKOV3) tumors grown in nude mice: tumor volume and histology; format: in vivo, mouse
Protocol: SKOV3 cells (ATCC) were grown to 70% confluence in Minimum Essential Medium (Life Technologies, Grand Island, N.Y.) supplemented with 10% Fetal Bovine Serum (Wisent, St. Bruno, Quebec) in a humidified atmosphere containing 5% CO2. Cells were then dissociated with 0.02% PBS/EDTA. Total cell count and viable cell number was determined by trypan blue stain and a hemacytometer.
Approximately 1×10^7 cells were resuspended in 400 μl saline and injected in 6-week-old CD-1 nude mice (female, Charles River) subcutaneously. After 20 days of continuous tumor growth, tumor size was about 100 mm^3. The tumor-bearing animals were then injected intraperitoneally every day for 4 consecutive days with 20 mg/kg of the representative peptide modulating agent N—Ac-CHAVC-NH2 (SEQ ID NO:10) and saline, for experimental and control respectively. Mice were sacrificed by cervical dislocation 4 days after final injection.
Tumor tissue was dissected and fixed in PBS with 4% paraformaldehyde for 48 hours. Specimens were then dehydrated in a series of alcohol incubations, and embedded in paraffin wax. Tissues were sectioned, rehydrated and stained with hematoxylin/eosin for morphological purposes. Representative sections obtained from treated and untreated mice are shown in FIGS. 28B and 28A, respectively.
Within similar experiments, tumor-bearing nude mice as described above were injected intraperitoneally with 2 mg/kg of the representative peptide modulating agent N—Ac-CHAVC-NH2 (SEQ ID NO:10) and saline, for experimental and control respectively. Injections were performed every day for 4 days. Mice were sacrificed 24 hours after the last injection. Tumor tissue was fixed, sectioned and stained as described above. Representative sections obtained from treated and untreated mice are shown in FIGS. 30A and 30B, respectively.
In a similar study, the effect of N—Ac-CHAVC-NH2 (SEQ ID NO:10) on ovarian tumor growth was evaluated at 2 mg/kg and 0.2 mg/kg. Mice were treated as described above with saline alone, 2 mg/kg peptide or 0.2 mg/kg peptide once per day for 5 days. The percent change in tumor volume (relative to the tumor size at day 1) was determined.

[2] = tested on: Human saphenous vein vascular smooth muscle cells; test: Vascular smooth muscle cell apoptosis at migrating wound edge, in situ end labeling; format: cell-based; settings: 1 mg/mL, 24 hours after wounding, n=4, p<0.05
Protocol: Human saphenous vein vascular smooth muscle cells were explanted from surplus segments of vein from patients undergoing coronary artery bypass surgery. Cells were maintained in Dulbecco's modified essential medium supplemented with […], 2 mmol/L L-glutamine and 10% fetal calf serum and were grown to confluence on glass coverslips. The cell layer was then subjected to scrape-wounding by drawing a fine cell scraper across the coverslip. Proliferation of the vascular smooth muscle cells was inhibited by addition of 2 mM hydroxyurea to the culture media. Vascular smooth muscle cells that are treated in this manner respond to the wounding of the confluent monolayer by migrating into the wound (Hammerle et al (1991) Vasa 20, 207-215). The percentage of apoptotic cells in the migrating edge (outermost 100 μm from the wound) was assessed by in situ end labeling at 24 hours after wounding (as in George et al (2001) Gene Therapy 8 668-676).

L1 = L1 (Homo sapiens, UniProt P32004); test: Neurite outgrowth on L1 expressing 3T3 monolayers (Example 2); format: cell-based, mouse; design: expressed in transfected cells; host or cells: 3T3 fibroblasts (monolayer); mouse post-natal day 3 cerebellar neurons on top; settings: 500 μg/mL
Sequence of L1 (P32004 20-1257): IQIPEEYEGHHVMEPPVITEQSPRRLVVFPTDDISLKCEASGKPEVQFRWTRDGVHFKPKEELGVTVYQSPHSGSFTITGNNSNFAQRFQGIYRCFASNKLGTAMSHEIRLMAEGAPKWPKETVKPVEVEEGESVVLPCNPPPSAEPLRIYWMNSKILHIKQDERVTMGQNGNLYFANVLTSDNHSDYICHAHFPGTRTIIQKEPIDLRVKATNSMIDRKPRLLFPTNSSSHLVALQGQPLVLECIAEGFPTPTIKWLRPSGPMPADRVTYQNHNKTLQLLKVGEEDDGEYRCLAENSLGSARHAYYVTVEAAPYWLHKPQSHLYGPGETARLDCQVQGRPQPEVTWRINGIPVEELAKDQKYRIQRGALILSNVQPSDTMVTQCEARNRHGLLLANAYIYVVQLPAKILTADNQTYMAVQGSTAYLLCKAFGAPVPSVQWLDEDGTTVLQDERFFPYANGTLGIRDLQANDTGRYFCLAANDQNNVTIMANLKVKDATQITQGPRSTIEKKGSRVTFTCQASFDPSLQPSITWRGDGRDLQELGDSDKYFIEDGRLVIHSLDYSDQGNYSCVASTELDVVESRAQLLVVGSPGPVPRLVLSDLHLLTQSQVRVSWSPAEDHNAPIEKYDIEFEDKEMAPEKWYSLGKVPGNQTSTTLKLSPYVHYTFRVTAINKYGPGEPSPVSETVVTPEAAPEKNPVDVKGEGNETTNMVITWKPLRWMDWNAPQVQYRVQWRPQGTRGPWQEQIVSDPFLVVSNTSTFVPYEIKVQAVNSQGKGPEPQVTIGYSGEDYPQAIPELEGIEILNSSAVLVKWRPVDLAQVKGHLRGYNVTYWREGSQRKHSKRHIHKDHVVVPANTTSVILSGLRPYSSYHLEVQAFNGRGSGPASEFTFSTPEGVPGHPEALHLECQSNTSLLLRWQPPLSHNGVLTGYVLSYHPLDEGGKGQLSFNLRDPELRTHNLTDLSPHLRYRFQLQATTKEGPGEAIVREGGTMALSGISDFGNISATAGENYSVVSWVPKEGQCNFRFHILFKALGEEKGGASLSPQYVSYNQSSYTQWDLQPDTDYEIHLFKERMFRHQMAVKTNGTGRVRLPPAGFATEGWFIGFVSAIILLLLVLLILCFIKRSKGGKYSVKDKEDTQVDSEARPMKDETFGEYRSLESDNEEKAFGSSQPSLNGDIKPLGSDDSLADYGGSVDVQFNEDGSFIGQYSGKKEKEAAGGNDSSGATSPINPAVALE

CC(=O)N[C@H]1CSSC[C@@H](C(N)=O)NC(=O)[C@H](C(C)C)NC(=O)[C@H](C)NC(=O)[C@H](Cc2c[nH]cn2)NC1=O [N—Ac—CHAVC—NH2, N-Ac-Cys-His-Ala-Val-Cys-NH2]
inhibition of neurite outgrowth on control 3T3 cells [1]: did not inhibit neurite outgrowth | disruption of OVCAR-3 adhesion (OVCAR-3): inactive | effect on neurite extension over control 3T3 cells (control 3T3 cells): had no effect on the basal growth over 3T3 cells; also recorded: no significant effect on neurite extension over control 3T3 cells | change in tumor volume (SKOV3 tumors; 0.2 mg/kg once per day for 5 days): grew at a slower rate than tumors treated with saline | effect on tumor blood vessels and tumor growth (SKOV3 tumors; 2 mg/kg intraperitoneally every day for 4 days, Von Willebrand Factor VIII stain): capable of damaging tumor blood vessels and stopping tumor growth in vivo | change in tumor volume (SKOV3 tumors; 2 mg/kg once per day for 5 days): slight reduction in volume over the five day study | tumor growth / tumor size (SKOV3 tumors; 20 mg/kg intraperitoneally every day for 4 consecutive days): prevents detectable tumor growth and results in a substantial decrease in tumor size | increase in apoptosis at wound edge [2]: 3±1 fold | inhibition of neurite outgrowth on 3T3 cells expressing L1 (L1): did not inhibit neurite outgrowth
